This passage reports Ki and Duration of catalepsy results from patent US20090239860A1, “NOVEL BENZOFURAN DERIVATIVE, MEDICINAL COMPOSITION CONTAINING THE SAME, AND USES OF THESE” (priority 2004, published 2009).

T1 sequence (P29274 whole entry): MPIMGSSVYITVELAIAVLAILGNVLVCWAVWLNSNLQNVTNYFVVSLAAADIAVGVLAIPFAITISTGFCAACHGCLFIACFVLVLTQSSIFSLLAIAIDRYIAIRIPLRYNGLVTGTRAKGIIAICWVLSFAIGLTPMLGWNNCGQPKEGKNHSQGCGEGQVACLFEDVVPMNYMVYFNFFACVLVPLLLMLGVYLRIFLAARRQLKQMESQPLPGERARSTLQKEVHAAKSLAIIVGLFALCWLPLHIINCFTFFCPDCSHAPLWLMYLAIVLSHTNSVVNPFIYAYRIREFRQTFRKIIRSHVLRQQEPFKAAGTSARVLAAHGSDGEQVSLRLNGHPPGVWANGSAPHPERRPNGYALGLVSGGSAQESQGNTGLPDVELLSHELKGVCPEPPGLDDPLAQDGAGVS

One experiment addresses T1, human adenosine A2A receptor (Homo sapiens, UniProt P29274).
T1 construct: expressed in transfected cells; host or cells: CHO-K1 (Chinese hamster ovary-K1), transient transfection with Lipofectamine 2000
As to the kind of experiment: Measurement of antagonistic action for human adenosine A2A receptor (inhibition of NECA-induced cAMP production in transfected CHO-K1 cells). In kind it is cell-based. As to conditions: human adenosine A2A receptor-expressed CHO-K1 cells, Ki from IC50 and Km for NECA. The method, then: Measurement of Antagonistic Action for Human Adenosine A2a Receptor
1) Preparation of Human Adenosine A2a Receptor-Expressed Cells
When Chinese hamster ovary-K1 (CHO-K1) cells were grown to subconfluence, they were treated with trypsin and suspended in D-MEM/F-12 medium (Invitrogen) including 10% fetal bovine serum (Sankojunyaku). The expression vector of human adenosine A2A receptor prepared in OPTI-MEM I (Invitrogen) and the transfection reagent of Lipofectamine 2000 (Invitrogen) were added to the cell suspension, and those cells were inoculated in poly-D-lysine-coated 96-well plates (5×10^4 cells/well). After incubating the plates for 24-30 hours at 37° C. in a humidified atmosphere with 5% CO2, they were used for the subsequent assays.
2) Measurement of the Inhibitory Effect on Human Adenosine A2a Receptor Activity
A test compound was dissolved in dimethyl sulfoxide (DMSO) and the resulting solution was added to D-MEM/F-12 medium supplemented with 2.5 unit/mL adenosine deaminase (Carbiochem) and 30 μM rolipram (Sigma), a phosphodiesterase inhibitor to prepare a solution of the test compound. Adenosine deaminase was used for the inactivation of adenosine derived from the cells.
The human adenosine A2A-expressed cells inoculated in the 96-well plates were washed twice with 150 μL/well of D-MEM/F-12 medium and a 50-μL aliquot of the test compound solution was then added to each well of the plates. After incubating the cells for 10 minutes at 37° C. in a humidified atmosphere with 5% CO2, a 50-μL aliquot of 1.2 nM 5′-N-ethylcarboxyamideadenosine (NECA; Sigma) including 2.5 unit/mL adenosine deaminase and 30 μM rolipram was added to each well of the plates and incubated for 25 minutes at 37° C. in a humidified atmosphere with 5% CO2. Stopping the reaction and the subsequent measurement of cAMP were performed by use of a cAMP enzyme-linked immunosorbent assay kit (Applied Biosystem). The chemoluminescence was measured by a Microplate Luminometer TR717 (Applied Biosystem). The experiments were carried out in duplicate wells.
Inhibitory rate of a test compound for NECA-induced cAMP production was found by the following formula:
Inhibitory rate (%)=[1−{(cAMP level with a test compound and NECA)−(cAMP level without a test compound and NECA)}/{(cAMP level with NECA)−(cAMP level without a test compound and NECA)}]×100
Using a Km value for NECA found by the measurement in the same plate as that of test compounds, an inhibitory constant Ki was found by the following formula: […]
What is called Ki is a dissociation constant, usually derived from enzyme kinetics or from competition with a known ligand. Read a high Ki as a looser hold on the target. In the case of `COc1ccc2c(NC(=O)c3cccc(CN4CCN(c5ccccc5)CC4)c3)c(C(N)=O)oc2c1` [Compound 2-1, 6-Methoxy-3-[3-(4-phenylpiperazin-1-ylmethyl)benzoylamino]-benzofuran-2-carboxamide], affinity was put at a Ki of 8 nM. Same read-out and setting: in the case of `NC(=O)c1oc2ccc(F)cc2c1NC(=O)COc1ccc(Cl)cc1` [Compound 1-145] it was 2.7 nM. The same measure, in the same setting: next, `COc1cc(F)cc2c(NC(=O)C3CC3)c(C(N)=O)oc12` [Compound 1-159]: 3.3 nM; `NC(=O)c1oc2ccc(F)cc2c1NC(=O)C1CC1` [Compound 1-1, 3-Cyclopropanecarbonylamino-5-fluorobenzofuran-2-carboxamide]: 8.5 nM. On the same count and under the same terms, in the case of `NC(=O)c1oc2cc(F)ccc2c1NC(=O)c1ccc2c(c1)OCO2` [Compound 1-91] it was 6.5 nM; in that of `Cc1ccc(C(=O)Nc2c(C(N)=O)oc3c(F)cc(F)cc23)o1` [Compound 1-119], 1.9 nM. `NC(=O)c1oc2cc(F)ccc2c1NC(=O)c1ccc(Oc2ccccc2)nc1` [Compound 1-138] showed a Ki of 4.5 nM. Still for that read-out and setting: next, `NC(=O)c1oc2c(F)cc(F)cc2c1NC(=O)C1CC1` [Compound 1-155]: 8.1 nM; `NC(=O)c1oc2ccc(Cl)cc2c1NC(=O)C1CC1` [Compound 1-2, 3-Cyclopropanecarbonylamino-5-chlorobenzofuran-2-carboxamide]: 4.1 nM; `NC(=O)c1oc2c(F)cc(F)cc2c1NC(=O)c1ccc(CN2CCN(Cc3ccc4c(c3)OCO4)CC2)o1` [Compound 2-138]: 2 nM. Consider `COc1ccc2c(NC(=O)c3ccc(-c4ccccc4)o3)c(C(N)=O)oc2c1` [Compound 1-133], for which the affinity, expressed as Ki, was 3.2 nM.

With `NC(=O)c1oc2c(F)cc(F)cc2c1NC(=O)c1ccco1` [Compound 1-109], the Ki was 2.7 nM. In turn, `CC(C)(C)OC(=O)N1CCN(Cc2ccc(C(=O)Nc3c(C(N)=O)oc4c(F)cc(F)cc34)o2)CC1` [Compound 2-142, tert-butyl 4-[5-(2-carbamoyl-5,7-difluoro-benzofuran-3-ylcarbamoyl)furan-2-ylmethyl]piperazine-1-carboxylate] had a Ki of 2 nM. The same measure, in the same setting: next, `NC(=O)c1oc2cc(Cl)ccc2c1NC(=O)C1CC1` [Compound 1-153]: 9.2 nM.

Take `COCC(=O)Nc1c(C(N)=O)oc2cc(OC)ccc12` [Compound 1-141]: the Ki came to 9.3 nM. Still for that read-out and setting: in the case of `CCc1ccc(C(=O)Nc2c(C(N)=O)oc3ccc(F)cc23)o1` [Compound 1-121] it was 0.8 nM; in that of `COc1ccc2c(NC(=O)c3ccc(CSc4nccn4C)cc3)c(C(N)=O)oc2c1` [Compound 2-7], 8.6 nM; in that of `CCc1ccc(C(=O)Nc2c(C(N)=O)oc3c(F)cc(F)cc23)o1` [Compound 1-125], 1.2 nM. `NC(=O)c1oc2c(F)cc(F)cc2c1NC(=O)C1CCC1` [Compound 1-161] displayed a Ki of 7 nM. In turn, `NC(=O)c1oc2c(F)cc(F)cc2c1NC(=O)Cc1ccccc1` [Compound 1-249] registered a Ki of 4.6 nM.

For `COc1ccc2c(NC(=O)c3cccc(F)c3)c(C(N)=O)oc2c1` [Compound 1-15], affinity was put at a Ki of 6.5 nM. Take `COc1ccc(C(=O)Nc2c(C(N)=O)oc3c(OC)cc(F)cc23)cc1` [Compound 1-213]: the Ki came out at 2.1 nM. The same measure, in the same setting: next, `NC(=O)c1oc2c(F)cc(F)cc2c1NC(=O)c1ccc(CN2CCN(Cc3ccccc3)CC2)o1` [Compound 2-129]: 1.6 nM. Take `Cc1cccc(C(=O)Nc2c(C(N)=O)oc3ccc(F)cc23)c1` [Compound 1-36]: the affinity, expressed as Ki, was 6.4 nM.

On to `NC(=O)c1oc2c(Cl)cc(F)cc2c1NC(=O)C1CC1` [Compound 1-156], for which the Ki was 9.8 nM. On the same count and under the same terms, next, `COc1ccc2c(NC(=O)c3ccc(F)cc3)c(C(N)=O)oc2c1` [Compound 1-16]: 0.9 nM. In turn, `NC(=O)c1oc2ccc(F)cc2c1NC(=O)COCc1ccccc1` [Compound 1-150] gave a Ki of 2.2 nM. `CN1CCN(C(=O)c2cccc(C(=O)Nc3c(C(N)=O)oc4c(F)cc(F)cc34)c2)CC1` [Compound 1-275] displayed a Ki of 0.5 nM.

Turning to `NC(=O)c1oc2ccc(Cl)cc2c1NC(=O)c1ccco1` [Compound 1-108], the affinity, expressed as Ki, was 9.3 nM. Same read-out and setting: next, `CC(O)c1ccc(C(=O)Nc2c(C(N)=O)oc3ccc(F)cc23)o1` (stereo not shown) [Compound 6-2, 5-Fluoro-3-[5-(1-hydroxyethyl)furan-2-carbonyl]-aminobenzofuran-2-carboxamide]: 1.1 nM.

For a further experiment, the system named is Haloperidol-induced catalepsy in rats. As to the kind of experiment: Haloperidol-induced catalepsy in rats (horizontal bar test). In kind it is in vivo, rat. As to conditions: male rats; compound 10 mg/kg orally in PEG400 2 hours before measurement; 5 hours after 1 mg/kg i.p. haloperidol; maximum 180 seconds (control 180.0). The method, then:
Haloperidol-Induced Catalepsy in Rats
The effect of a compound on drug-induced catalepsy in rats was evaluated. Parkinson's disease is a movement disorder reflecting a decline in striatal dopamine due to the degeneration of dopaminergic neuron arising from the sbstantia nigra. When haloperidol, a blocker of dopamine D2 receptor is administered in rats, the drug induces catalepsy which is considered as one of the Parkinson's disease-like symptoms since haloperidol blocks the neurotransmission of dopaminergic neuron. Male rats (Crj: CD(SD)IGS, bodyweight: 210-260 g, Charles River Japan, Inc.) were used for the experiments. Three to five rats for each group were tested for catalepsy 5 hours after intraperitoneal administration of 1 mg/kg haloperidol (Serenace (registered mark); Dainippon Pharma), a dopamine D2 antagonist. Catalepsy was measured using the horizontal bar test (Morelli and Chiara, “Eur. J. Pharmacol.”, vol. 117, p. 179-185 (1985)). A compound (10 mg/kg) was dissolved in PEG400 and administered orally 2 hours prior to the measurement of catalepsy. PEG400 was also administered orally to the rats for the control group. The front feet of the rats were placed on a horizontal bar (3 mm in diameter) suspended 10-12 cm above a platform and their rear feet were placed on the platform. The degree of catalepsy produced in the rats was measured by how long it took for their front feet to remove themselves from the bar. A maximum of 180 seconds was allowed.
Compound `NC(=O)c1oc2c(F)cc(F)cc2c1NC(=O)C1CC1` [Compound 1-155] gave a Duration of catalepsy of 38.3 s. Compound `NC(=O)c1oc2ccc(Cl)cc2c1NC(=O)C1CC1` [Compound 1-2, 3-Cyclopropanecarbonylamino-5-chlorobenzofuran-2-carboxamide] came in with a Duration of catalepsy of 91.6 s. Same read-out and setting: in the case of `CCc1ccc(C(=O)Nc2c(C(N)=O)oc3ccc(F)cc23)o1` [Compound 1-121] it was 48.2 s; in that of `COc1ccc2c(NC(=O)c3ccc(F)cc3)c(C(N)=O)oc2c1` [Compound 1-16], 116.4 s.
